{"source": "paper PMC11249626", "about": "“Fluorophore-Labeled Pyrrolones Targeting the Intracellular Allosteric Binding Site of the Chemokine Receptor CCR1” (ACS Pharmacology & Translational Science, 2024)", "biological_target": "T1, CCR9 (Homo sapiens, UniProt P51686)", "T1 construct": "host or cells: HEK293T, transient", "T1 sequence (P51686 1-369)": "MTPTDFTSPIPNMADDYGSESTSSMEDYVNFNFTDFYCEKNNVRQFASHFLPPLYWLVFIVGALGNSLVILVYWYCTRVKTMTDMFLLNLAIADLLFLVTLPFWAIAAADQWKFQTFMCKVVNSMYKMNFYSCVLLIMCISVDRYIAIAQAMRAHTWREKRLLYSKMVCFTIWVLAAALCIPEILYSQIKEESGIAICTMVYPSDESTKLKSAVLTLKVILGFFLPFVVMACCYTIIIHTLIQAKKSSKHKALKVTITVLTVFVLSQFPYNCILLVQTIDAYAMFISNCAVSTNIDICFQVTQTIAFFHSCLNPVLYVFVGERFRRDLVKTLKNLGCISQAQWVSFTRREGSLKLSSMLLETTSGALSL", "assay": "Membrane-based NanoBRET saturation binding assay, CCR9_Nluc membranes", "conditions": "compared with CCR1", "description": "Emission spectra of Nluc -labeled CCR1 (CCR1_Nluc) protein: The emission spectra of CCR1_Nluc has already been reported by Toy et al.1 For a confirmation of the reported data with new CCR1_Nluc membrane batches, furimazine (Promega, Mannheim, Germany 1:2000) was added to the membrane preparations (2 µg protein/well). […]\nNanoBRET binding assays: Membrane-based NanoBRET saturation assay: For the establishment of our NanoBRET binding assay, we referred to recently published protocols. […]\nThen, 20 µL of the membrane preparations diluted in assay buffer (3 µg total protein/well) were added and the plates were incubated for 90 min at 37 °C. Subsequently, 5 µL of a furimazine solution (Promega, Mannheim, Germany, final assay dilution: 1:5,000) were added to each well (final assay volume: 35 µL) before measuring luminescence with a CLARIOstar microplate reader using 620/10 nm and 475/30 nm emission filters after 5 min of incubation in the dark. Bioluminescence resonance energy transfer (BRET) was determined as the ratio of acceptor fluorescence and donor luminescence. […] Specific binding signals were calculated as a difference of total and non-specific binding. If required, netBRET values were calculated as the difference between total BRET values and the values obtained in the absence of a fluorescent ligand. […]"}
{"smiles": "CN(C)c1ccc2c(-c3cc(C(=O)NCCOCCOCc4cn(CCCC(=O)C5=C(O)C(=O)N(c6ccc(Br)cc6F)C5C5CCCCC5)nn4)ccc3C(=O)[O-])c3ccc(=[N+](C)C)cc-3oc2c1", "note": "(stereo not shown) [compound 12]", "values": [{"measurement": "Binding signal for CCR9", "value": "much weaker"}]}
